{"source": "paper PMC7824033", "about": "“Flavones, Flavonols, and Glycosylated Derivatives—Impact on Candida albicans Growth and Virulence, Expression of CDR1 and ERG11, Cytotoxicity” (Pharmaceuticals, 2020)", "key": {"in vitro": {"test": "in vitro", "settings": "pig", "description": "Preparation of PLP2 cell line was performed with freshly harvested porcine liver supplied from a local slaughter house. Tissues from the liver were washed in Hank’s balanced salt solution comprising 100 U/mL penicillin and 100 μg/mL streptomycin and split into 1 × 1 mm^3 explants. Some of the prepared explants were set in 25 cm^2 tissue flasks in Dulbecco’s modified Eagle’s medium (DMEM) with 10% fetal bovine serum (FBS), 2 mM nonessential amino acids, 100 U/mL penicillin, and […] streptomycin, and incubation was conducted at 37 °C with 5% CO2 in a humidified atmosphere. The fresh medium was added every 2 days. Cultivation of the cells was further conducted with direct observation by the phase contrast microscope every 2–3 days. Before confluence was achieved, cells were subcultured and seeded in 96-well plates at a density of 1.0 × 10^4 cells per well and cultivated in DMEM supplemented with 10% FBS, 100 U/mL penicillin, and 100 μg/mL streptomycin. Previously described Sulforhodamine B assay was used for the determination of cytotoxicity. The obtained results were defined as GI50 values corresponding to the compound concentration that inhibits 50% of the net cell growth. Ellipticine was used as a positive control."}, "C. albicans": {"system": "C. albicans", "settings": "cited from earlier work"}, "Candida albicans": {"system": "Candida albicans", "test": "Microdilution assay, MIC (strain not named)", "assay_type": "cell-based", "settings": "C. albicans, this study, strain not given, read-out: minimum inhibitory concentration (MIC)", "text": "(§1) C. albicans was isolated from oral cavities of patients at ENT Clinic, Clinical Hospital Centre Zvezdara, Belgrade, Serbia after obtaining informed written consent and identified by using CHROMagar plates (Biomerieux, Craponne, France). Strains were maintained on Sabouraud Dextrose Agar (Merck, Darmstadt, Germany) and are deposited at the Mycological Laboratory, Department of Plant Physiology, Institute for Biological Research “Siniša Stanković”, National Institute of Republic of Serbia, University of Belgrade. The collection of samples was approved by the Ethical Committee (Office for Human Research Protection, Zvezdara University Medical Center, Belgrade, Serbia, document issued 26 October 2016).\n(§2) Microdilution assay with some modification was used for determination of minimum inhibitory (MIC) and minimum fungicidal concentrations (MFC). Yeast cultures were adjusted to 1.0 × 10^5 CFU/per well with sterile PBS (Phosphate buffered saline, pH 7.4). The 96-well microtiter plates with serially diluted flavonoids (concentration range 0.3–75 µg/mL) in liquid broth were incubated at 37 °C for 24 h. After incubation, MIC and MFC were determined. The lowest concentrations that were not inducing microscopically observed growth were considered as MIC. For microscopic determination of growth, we used inverted microscope Nikon Eclipse TS2 (Amsterdam, Netherland) and examined the fungal growth in the wells of 96-well microtiter plates compared to the control (untreated yeast cells). MFC values were determined as concentrations without visible growth after serial sub-cultivation of 10 µL of samples at 37 °C for 24 h. Ketoconazole and amphotericin B (SigmaAldrich, Darmstadt, Germany) were used as an antifungal control. The tested flavonoids were obtained from Extrasynthese, Rhone, France."}, "C. albicans biofilm": {"system": "C. albicans biofilm", "settings": "cited from earlier work"}, "C. albicans 10/15": {"system": "C. albicans 10/15", "test": "Microdilution assay, MIC and MFC", "assay_type": "cell-based", "settings": "Candida albicans, C. albicans 10/15, mean ± SD of three replicates; for MFC: read-out: MFC; for MIC: read-out: MIC", "text": "as §1, §2"}, "C. albicans 13/15": {"system": "C. albicans 13/15", "test": "Microdilution assay, MIC and MFC", "assay_type": "cell-based", "settings": "Candida albicans, C. albicans 13/15, mean ± SD of three replicates; for MFC: read-out: MFC; for MIC: read-out: MIC", "text": "as §1, §2"}, "C. albicans 527/14": {"system": "C. albicans 527/14", "test": "Microdilution assay, MIC and MFC", "assay_type": "cell-based", "settings": "Candida albicans, C. albicans 527/14, mean ± SD of three replicates; for MFC: read-out: MFC; for MIC: read-out: MIC", "text": "as §1, §2"}, "C. albicans 475/15": {"system": "C. albicans 475/15", "test": "Microdilution assay, MIC and MFC", "assay_type": "cell-based", "settings": "Candida albicans, C. albicans 475/15, mean ± SD of three replicates; for MFC: read-out: MFC; for MIC: read-out: MIC", "text": "as §1, §2"}, "[1]": {"system": "C. albicans 475/15 hyphal growth", "test": "Anti-hyphal forming activity", "assay_type": "cell-based, Candida albicans", "settings": "MIC, 4 h, YPD + 10% FBS", "description": "C. albicans 475/15 cells were incubated with MIC of tested compounds in YPD + 10% FBS, at 37 °C, for 4 h. Cells were examined under microscope (Nikon Eclipse TS2, Amsterdam, Netherland) and number of cells, growing in the yeast or hyphal and germ tube formations, was determined. Assay was performed in triplicate and percentage of hyphae was determined."}}, "note": "Like-named read-outs stand apart in the source and are kept apart here.", "data": [{"compound": "O=c1c(O[C@@H]2O[C@H](CO)[C@@H](O)[C@H](O)[C@H]2O)c(-c2ccc(O)c(O)c2)oc2cc(O)cc(O)c12", "note": "[Isoquercitrin, isoquercitrin]", "values": [{"measurement": "GI50", "setting": "in vitro", "value": "> 400", "unit": "µg/mL"}, {"measurement": "MIC", "setting": "C. albicans; C. albicans ATCC 90028", "value": 2.5, "unit": "µg/mL"}, {"measurement": "MIC", "setting": "Candida albicans", "value": 37.5, "unit": "µg/mL"}, {"measurement": "concentration with antibiofilm potential", "setting": "C. albicans biofilm; ref 19", "value": 200, "unit": "µg/mL"}, {"measurement": "MFC", "setting": "C. albicans 10/15", "value": "75 ± 2", "unit": "µg/mL"}, {"measurement": "MIC", "setting": "C. albicans 10/15", "value": "37.5 ± 2", "unit": "µg/mL"}, {"measurement": "MFC", "setting": "C. albicans 13/15", "value": "75 ± 2", "unit": "µg/mL"}, {"measurement": "MIC", "setting": "C. albicans 13/15", "value": "37.5 ± 2", "unit": "µg/mL"}, {"measurement": "MFC", "setting": "C. albicans 527/14", "value": "75 ± 2", "unit": "µg/mL"}, {"measurement": "MIC", "setting": "C. albicans 527/14", "value": "37.5 ± 1", "unit": "µg/mL"}, {"measurement": "MFC", "setting": "C. albicans 475/15", "value": "75 ± 2", "unit": "µg/mL"}, {"measurement": "MIC", "setting": "C. albicans 475/15", "value": "37.5 ± 1", "unit": "µg/mL"}, {"measurement": "reduction of hyphal growth (words)", "setting": "[1]", "value": "efficient in reduction of hyphal growth"}, {"measurement": "reduction of hyphal growth (words)", "setting": "[1]; listed as isoquercitrin", "value": "reduced"}]}, {"compound": "O=c1c(O)c(-c2ccc(O)c(O)c2)oc2cc(O)cc(O)c12", "note": "[Quercetin, quercetin]", "values": [{"measurement": "GI50", "setting": "in vitro", "value": "> 400", "unit": "µg/mL"}, {"measurement": "MIC", "setting": "C. albicans; C. albicans ATCC 10231, ref 16", "value": 8, "unit": "µg/mL"}, {"measurement": "MIC", "setting": "C. albicans; C. albicans ATCC 10231, ref 17", "value": 100, "unit": "µg/mL"}, {"measurement": "MIC", "setting": "C. albicans; clinical isolates and C. albicans 10231", "value": "> 83", "unit": "µg/mL"}, {"measurement": "MIC", "setting": "C. albicans; clinical isolates and reference strains ATCC 10231 and SC5314", "value": "128 to 512", "unit": "µg/mL"}, {"measurement": "MIC", "setting": "Candida albicans", "value": 75, "unit": "µg/mL"}, {"measurement": "activity against preformed 24-h-old biofilms", "setting": "C. albicans biofilm; 625 µg/mL, C. albicans ATCC 90028", "value": "inactive"}, {"measurement": "SMIC (sessile cells MIC)", "setting": "C. albicans biofilm; C. albicans ATCC 10231, SC 5314 and clinical isolates", "value": "≥ 1024", "unit": "µg/mL"}, {"measurement": "concentration that prevented biofilm establishment", "setting": "C. albicans biofilm; C. albicans NBC099", "value": 200, "unit": "µg/mL"}, {"measurement": "SMIC (sessile cells MIC)", "setting": "C. albicans biofilm; oral and reference isolates SC5314 and 3153A", "value": "> 200", "unit": "µg/mL"}, {"measurement": "MFC", "setting": "C. albicans 10/15", "value": "150 ± 20", "unit": "µg/mL"}, {"measurement": "MIC", "setting": "C. albicans 10/15", "value": "75 ± 3", "unit": "µg/mL"}, {"measurement": "MFC", "setting": "C. albicans 13/15", "value": "150 ± 20", "unit": "µg/mL"}, {"measurement": "MIC", "setting": "C. albicans 13/15", "value": "75 ± 10", "unit": "µg/mL"}, {"measurement": "MFC", "setting": "C. albicans 527/14", "value": "150 ± 10", "unit": "µg/mL"}, {"measurement": "MIC", "setting": "C. albicans 527/14", "value": "75 ± 2", "unit": "µg/mL"}, {"measurement": "MFC", "setting": "C. albicans 475/15", "value": "150 ± 10", "unit": "µg/mL"}, {"measurement": "MIC", "setting": "C. albicans 475/15", "value": "75 ± 2", "unit": "µg/mL"}, {"measurement": "reduction of hyphal growth (words)", "setting": "[1]", "value": "only slight inhibition"}]}]}
